# Reference: ChEMBL document CHEMBL1201862, “PubChem BioAssay data set” (2004)
#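 The compound was tested at five concentrations on cells cultured in 96-well plates, with a 48-hour exposure period. GI50 marks 50% less growth.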 The source made the active and inactive calls. Cut-off read from the data, not from the text of the source: active = GI50 up to about 1.1 µM and inactive = higher.
# Key:
# Test in all cases: NCI-60 cell line screen, 48 h
# 786-0 = tested on: 786-0
# Hs-578T = tested on: Hs-578T
# MDA-MB-435 = tested on: MDA-MB-435
# HL-60 = tested on: HL-60
# SK-MEL-28 = tested on: SK-MEL-28
# T47D = tested on: T47D
# ACHN = tested on: ACHN
# MCF7 = tested on: MCF7
# RPMI-8226 = tested on: RPMI-8226
# OVCAR-4 = tested on: OVCAR-4
# SNB-75 = tested on: SNB-75
# UACC-62 = tested on: UACC-62
# SNB-19 = tested on: SNB-19
# PC-3 = tested on: PC-3
# RXF 393 = tested on: RXF 393
# COLO 205 = tested on: COLO 205
# SK-MEL-5 = tested on: SK-MEL-5
# SK-MEL-2 = tested on: SK-MEL-2
# MDA-MB-231 = tested on: MDA-MB-231
# OVCAR-3 = tested on: OVCAR-3
# SR = tested on: SR
# NCI-H460 = tested on: NCI-H460
# SN12C = tested on: SN12C
# KM12 = tested on: KM12
# CAKI-1 = tested on: CAKI-1
# IGROV-1 = tested on: IGROV-1
# SF-295 = tested on: SF-295
# A549 = tested on: A549
# OVCAR-5 = tested on: OVCAR-5
# M14 = tested on: M14
# DU-145 = tested on: DU-145
# EKVX = tested on: EKVX
# SF-268 = tested on: SF-268
# HCT-116 = tested on: HCT-116
# NCI-H226 = tested on: NCI-H226
# NCI-H522 = tested on: NCI-H522
# MOLT-4 = tested on: MOLT-4
# LOX IMVI = tested on: LOX IMVI
# BT-549 = tested on: BT-549
# TK-10 = tested on: TK-10
# Malme-3M = tested on: Malme-3M
# HOP-92 = tested on: HOP-92
# HCT-15 = tested on: HCT-15
# HOP-62 = tested on: HOP-62
# UO-31 = tested on: UO-31
# K562 = tested on: K562
# HT-29 = tested on: HT-29
# A498 = tested on: A498
# OVCAR-8 = tested on: OVCAR-8
# U-251 = tested on: U-251
# SK-OV-3 = tested on: SK-OV-3
# UACC-257 = tested on: UACC-257
# NCI/ADR-RES = tested on: NCI/ADR-RES
# SW-620 = tested on: SW-620
# NCI-H23 = tested on: NCI-H23
# HCC 2998 = tested on: HCC 2998
# SF-539 = tested on: SF-539
compound,measurement,setting,value
CCC1c2[nH]c3ccccc3c2C[C@H]2C(=O)NC(COC(C)(C)C)C(=O)N12 (some centres not stated),GI50,786-0,61.2 µM (inactive)
same,GI50,Hs-578T,25.8 µM (inactive)
same,GI50,MDA-MB-435,37.7 µM (inactive)
same,GI50,HL-60,21.3 µM (inactive)
same,GI50,SK-MEL-28,86.3 µM (inactive)
same,GI50,T47D,44.9 µM (inactive)
same,GI50,ACHN,42 µM (inactive)
same,GI50,MCF7,41.8 µM (inactive)
same,GI50,RPMI-8226,32.4 µM (inactive)
same,GI50,OVCAR-4,39.1 µM (inactive)
same,GI50,SNB-75,19.8 µM (inactive)
same,GI50,UACC-62,53.3 µM (inactive)
same,GI50,SNB-19,49.1 µM (inactive)
same,GI50,PC-3,28.5 µM (inactive)
same,GI50,RXF 393,55.5 µM (inactive)
same,GI50,COLO 205,19.7 µM (inactive)
same,GI50,SK-MEL-5,27.8 µM (inactive)
same,GI50,SK-MEL-2,32.8 µM (inactive)
same,GI50,MDA-MB-231,36.9 µM (inactive)
same,GI50,OVCAR-3,32 µM (inactive)
same,GI50,SR,31.3 µM (inactive)
same,GI50,NCI-H460,31.2 µM (inactive)
same,GI50,SN12C,45.5 µM (inactive)
same,GI50,KM12,27.9 µM (inactive)
same,GI50,CAKI-1,44.9 µM (inactive)
same,GI50,IGROV-1,29.8 µM (inactive)
same,GI50,SF-295,19.4 µM (inactive)
same,GI50,A549,39.3 µM (inactive)
same,GI50,OVCAR-5,47.3 µM (inactive)
same,GI50,M14,30.1 µM (inactive)
same,GI50,DU-145,67.6 µM (inactive)
same,GI50,EKVX,45.2 µM (inactive)
same,GI50,SF-268,67.3 µM (inactive)
same,GI50,HCT-116,41.6 µM (inactive)
same,GI50,NCI-H226,> 100 µM (inactive)
same,GI50,NCI-H522,38.5 µM (inactive)
same,GI50,MOLT-4,31.4 µM (inactive)
same,GI50,LOX IMVI,37.3 µM (inactive)
same,GI50,BT-549,34 µM (inactive)
same,GI50,TK-10,27.1 µM (inactive)
same,GI50,Malme-3M,21.7 µM (inactive)
same,GI50,HOP-92,21.2 µM (inactive)
same,GI50,HCT-15,48 µM
same,GI50,HOP-62,76.6 µM (inactive)
same,GI50,UO-31,38.2 µM (inactive)
same,GI50,K562,39.4 µM (inactive)
same,GI50,HT-29,38.2 µM (inactive)
same,GI50,A498,72.3 µM (inactive)
same,GI50,OVCAR-8,39.4 µM (inactive)
same,GI50,U-251,40.7 µM (inactive)
same,GI50,SK-OV-3,63 µM (inactive)
same,GI50,UACC-257,25.2 µM (inactive)
same,GI50,NCI/ADR-RES,40.7 µM (inactive)
same,GI50,SW-620,69 µM (inactive)
same,GI50,NCI-H23,32.9 µM (inactive)
CN(C)c1ccc(/C=N/c2ccc(-c3nc4ccccc4o3)cc2)cc1,GI50,786-0,50.6 µM (inactive)
same,GI50,Hs-578T,> 100 µM (inactive)
same,GI50,MDA-MB-435,30.1 µM (inactive)
same,GI50,HL-60,20.8 µM (inactive)
same,GI50,HCC 2998,14.7 µM (inactive)
same,GI50,SK-MEL-28,67.8 µM (inactive)
same,GI50,T47D,19.4 µM (inactive)
same,GI50,ACHN,54.3 µM (inactive)
same,GI50,MCF7,40.9 µM (inactive)
same,GI50,OVCAR-4,33.5 µM (inactive)
same,GI50,SNB-75,54.7 µM (inactive)
same,GI50,UACC-62,38.7 µM (inactive)
same,GI50,SNB-19,> 100 µM (inactive)
same,GI50,PC-3,29.7 µM (inactive)
same,GI50,COLO 205,30.5 µM (inactive)
same,GI50,SK-MEL-5,13 µM (inactive)
same,GI50,SK-MEL-2,30.6 µM (inactive)
same,GI50,MDA-MB-231,53.2 µM (inactive)
same,GI50,OVCAR-3,20.3 µM (inactive)
same,GI50,SR,36 µM (inactive)
same,GI50,NCI-H460,28.8 µM (inactive)
same,GI50,SN12C,60.8 µM (inactive)
same,GI50,KM12,31.8 µM (inactive)
same,GI50,IGROV-1,42.6 µM (inactive)
same,GI50,A549,46.9 µM (inactive)
same,GI50,OVCAR-5,> 100 µM (inactive)
same,GI50,M14,58.5 µM (inactive)
same,GI50,DU-145,52.5 µM (inactive)
same,GI50,EKVX,28.6 µM (inactive)
same,GI50,SF-268,79.1 µM (inactive)
same,GI50,HCT-116,53.7 µM (inactive)
same,GI50,NCI-H522,42.3 µM (inactive)
same,GI50,MOLT-4,24.7 µM (inactive)
same,GI50,LOX IMVI,35.2 µM (inactive)
same,GI50,BT-549,32.4 µM (inactive)
same,GI50,TK-10,36.5 µM (inactive)
same,GI50,Malme-3M,> 100 µM (inactive)
same,GI50,HOP-92,70.3 µM (inactive)
same,GI50,HCT-15,31.8 µM
same,GI50,HOP-62,35 µM (inactive)
same,GI50,UO-31,48.8 µM (inactive)
same,GI50,K562,36.7 µM (inactive)
same,GI50,HT-29,56.2 µM (inactive)
same,GI50,A498,53 µM (inactive)
same,GI50,SF-539,40.8 µM (inactive)
same,GI50,OVCAR-8,31.8 µM (inactive)
same,GI50,U-251,31.7 µM (inactive)
same,GI50,SK-OV-3,35 µM (inactive)
same,GI50,UACC-257,25.5 µM (inactive)
same,GI50,NCI/ADR-RES,33.5 µM (inactive)
same,GI50,SW-620,86.3 µM (inactive)
same,GI50,NCI-H23,32.7 µM (inactive)
